From US5565561A, “Natural substance cyclamenol and chemical derivatives” (Bayer Aktiengesellschaft, priority 1992, dated 1996)

How the values were obtained:
[1] = system: myeloperoxidase activity (accumulation of neutrophilic leucocytes); test: LTB4-superfused hamster cheek pouch, myeloperoxidase activity as measure of accumulation of neutrophilic leucocytes; format: in vivo; settings: 1 mg/kg i.v.; cheek pouch superfused with LTB4 for 10 min
From the text: (§1) 3. Leucocyte adhesion in small venules was investigated in the hamster cheek pouch (preparation according to Duling, MVR 5, 423-429, 1973). An increased adhesion is caused by the preparatory preparation of the cheek pouch. […] The determination of the myeloperoxidase activity as a direct measure of the accumulation of neutrophilic leucocytes gives increases of around 80-100% compared to the control.

[2] = target: T1, Myeloperoxidase from human polymorphonuclear neutrophils (Homo sapiens, UniProt P05164); test: Inhibition of myeloperoxidase activity (ortho-dianisidine/H2O2, absorbance at 490 nm); format: biochemical; settings: pH 6.0, 30° C.
T1 construct: The latter were isolated from fresh venous whole blood; endogenous in cells; host or cells: human polymorphonuclear neutrophils isolated from fresh venous whole blood; lysed with cetyltrimethylammonium bromide, 40,000 g supernatant
T1 sequence (P05164 279-745 limits assumed): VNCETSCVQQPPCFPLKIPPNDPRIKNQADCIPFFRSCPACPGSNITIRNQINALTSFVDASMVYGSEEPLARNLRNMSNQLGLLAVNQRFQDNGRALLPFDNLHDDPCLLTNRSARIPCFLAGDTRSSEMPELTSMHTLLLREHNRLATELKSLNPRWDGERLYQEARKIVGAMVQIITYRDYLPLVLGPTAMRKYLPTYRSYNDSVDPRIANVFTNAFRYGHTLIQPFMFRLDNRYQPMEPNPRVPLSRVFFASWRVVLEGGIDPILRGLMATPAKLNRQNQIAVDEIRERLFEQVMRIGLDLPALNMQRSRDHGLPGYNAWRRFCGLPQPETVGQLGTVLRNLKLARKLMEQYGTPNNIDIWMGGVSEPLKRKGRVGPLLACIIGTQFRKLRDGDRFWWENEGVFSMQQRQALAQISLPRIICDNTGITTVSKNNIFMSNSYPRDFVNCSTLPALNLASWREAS
T1 sequence (P05164 165-278 limits assumed): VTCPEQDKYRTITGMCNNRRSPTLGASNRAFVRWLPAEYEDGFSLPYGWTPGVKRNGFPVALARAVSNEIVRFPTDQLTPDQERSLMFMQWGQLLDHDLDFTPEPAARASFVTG
Description: Myeloperoxidase from human polymorphonuclear neutrophils was used for the measurements. The latter were isolated from fresh venous whole blood according to the method of D. English and B. R. Andersen, Journal of Immunological Methods 5, (1974) 249-252.
10^7 cells were lysed at 0° C. for 10 min using 1 ml of 0.5% cetyltrimethylammonium bromide in 50 mmol/l sodium phosphate buffer pH 6.0, frozen and directly thawed again. This process was repeated twice. The suspension was then centrifuged at 40,000 g for 10 min. The supernatant was diluted with 50 mmol/l sodium phosphate buffer pH 6.0 according to its myeloperoxidase activity and used for the tests.
To carry out the tests, 10 μl of test sample are added to a dimethyl sulphoxide-containing solution (max. v/v 30%) with 30 μl of the myeloperoxidase solution prepared as described above=1-2.5 μg of protein, in a microtitre plate (Greiner) with a smooth bottom. The reaction is started by addition of a test mixture consisting of 250 μl of 50 mmol/l sodium phosphate buffer pH 6.0, 10 μl of 0.5×10^-3 mmol/l H2 O2 and 10 μl of 2.5×10^-2 mol/l ortho-dianisidine in dimethyl sulphoxide. The increase in the absorbance is measured at 490 nm in an Elisa reader at 30° C. 6 measurements are carried out at an interval of 2 min and the increase in absorbance per minute is calculated. A control which instead of a test sample contains only the corresponding amount of dimethyl sulphoxide is prepared as the 100% value and then the inhibition by the sample is calculated. All measurements are carried out as a triplicate determination.

[3] = system: infarcted cardiac tissue; test: Reduction of the infarct size in the rat infarct model; format: in vivo, Wistar rats; settings: 1 mg/kg each before occlusion and before reperfusion, jugular vein infusion; average and standard deviation, 11 rats
Description: After a 5-minute post-operative recovery phase, the compound from Example 1 in a dose of 1 mg/kg dissolved in 100% DMSO or solvents was infused for 6 min into the catheterized jugular vein of the ventilated rats and the coronary artery was occluded for 30 min. At the 25 minute point of the occlusion, the second administration of the compound from Example 1 or solvent is carried out under the conditions described above. After the end of the infusion and occulsion phase, the ligature was opened and the heart was reperfused for 90 min.
For histological staining of the infarcted cardiac tissue, the heart was perfused ex vivo retrogressively with triphenyltetrazolium chloride (TTC, 1.5%) in 20 mM potassium phosphate buffer for 15 min and with 0.9% NaCl for 10 min at 37° C. and at a perfusion pressure of 100 mm Hg. The infarct sizes were calculated in percent by weight of infarcted to non-infarcted tissue and indicated in percent as average values and their standard deviations of 11 rats treated with the compound from Example 1 and of 11 treated with solvent.

[4] = system: Leucocyte adhesion in small venules; test: Leucocyte adhesion in small venules of the hamster cheek pouch; format: in vivo; settings: Mesocricetus auratus, iv, adhesion caused by the preparation, read-out: dose from which leucocyte adhesion is significantly reduced
From the text: as §1

## CC1C=CC=CC=CC=CC(O)CC=CC=CC=CC(=O)NC1 (centres unmarked) [Example 1, Cyclamenol]
[1]
  effect on the rise in MPO activity: prevents the rise in the MPO activity
[2]; 0.1 μmol/l
  inhibition at 0.1 µM: 12%
[2]; 1 μmol/l
  inhibition at 1 µM: 28%
[2]; 10 μmol/l
  inhibition at 10 µM: 45%
[2]; 50 μmol/l
  inhibition at 50 µM: 60%
[3]
  reduction of infarct size: 12.2±4.8%
  reduction of infarct size (first value): 19.0±6.0%
[4]
  minimal effective dose: ≥ 0.1 mg/kg
